Patent US20240208992A1, “MACROCYCLES AS CFTR MODULATORS” (Idorsia Pharmaceuticals Ltd, priority 2021, published 2024)

Target: human F508del-CFTR (Homo sapiens, UniProt P13569, DEL508-508)
Assay: F508del-CFTR cell surface expression (corrector activity), DiscoveRx ß-galactosidase complementation chemiluminescence assay in recombinant U2OS cell line;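 further: U2OS cells co-expressing ProLink-tagged F508del-CFTR and a membrane-anchored enzyme acceptor, where more surface CFTR restores β-galactosidase activity measured by chemiluminescence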
Details: for EC50: EC50, F508del-CFTR cell surface expression; for Emax: U2OS
[1] = U2OS cell line, 16h compound incubation, geomean values
[2] = in relation to the Emax of the corrector lumacaftor (=100%), U2OS cell line, 16h compound incubation, arithmetic mean values
[3] = U2OS cells, 16h compound incubation, geomean of several measurements
[4] = in relation to the Emax of the corrector lumacaftor (=100%), U2OS cells, 16h compound incubation, arithmetic mean
[5] = U2OS cells, 16h compound incubation, geomean values
[6] = in relation to Emax of corrector lumacaftor (=100%), arithmetic mean values

Chain of human F508del-CFTR (P13569 with tags, fused parts or gaps DEL508-508): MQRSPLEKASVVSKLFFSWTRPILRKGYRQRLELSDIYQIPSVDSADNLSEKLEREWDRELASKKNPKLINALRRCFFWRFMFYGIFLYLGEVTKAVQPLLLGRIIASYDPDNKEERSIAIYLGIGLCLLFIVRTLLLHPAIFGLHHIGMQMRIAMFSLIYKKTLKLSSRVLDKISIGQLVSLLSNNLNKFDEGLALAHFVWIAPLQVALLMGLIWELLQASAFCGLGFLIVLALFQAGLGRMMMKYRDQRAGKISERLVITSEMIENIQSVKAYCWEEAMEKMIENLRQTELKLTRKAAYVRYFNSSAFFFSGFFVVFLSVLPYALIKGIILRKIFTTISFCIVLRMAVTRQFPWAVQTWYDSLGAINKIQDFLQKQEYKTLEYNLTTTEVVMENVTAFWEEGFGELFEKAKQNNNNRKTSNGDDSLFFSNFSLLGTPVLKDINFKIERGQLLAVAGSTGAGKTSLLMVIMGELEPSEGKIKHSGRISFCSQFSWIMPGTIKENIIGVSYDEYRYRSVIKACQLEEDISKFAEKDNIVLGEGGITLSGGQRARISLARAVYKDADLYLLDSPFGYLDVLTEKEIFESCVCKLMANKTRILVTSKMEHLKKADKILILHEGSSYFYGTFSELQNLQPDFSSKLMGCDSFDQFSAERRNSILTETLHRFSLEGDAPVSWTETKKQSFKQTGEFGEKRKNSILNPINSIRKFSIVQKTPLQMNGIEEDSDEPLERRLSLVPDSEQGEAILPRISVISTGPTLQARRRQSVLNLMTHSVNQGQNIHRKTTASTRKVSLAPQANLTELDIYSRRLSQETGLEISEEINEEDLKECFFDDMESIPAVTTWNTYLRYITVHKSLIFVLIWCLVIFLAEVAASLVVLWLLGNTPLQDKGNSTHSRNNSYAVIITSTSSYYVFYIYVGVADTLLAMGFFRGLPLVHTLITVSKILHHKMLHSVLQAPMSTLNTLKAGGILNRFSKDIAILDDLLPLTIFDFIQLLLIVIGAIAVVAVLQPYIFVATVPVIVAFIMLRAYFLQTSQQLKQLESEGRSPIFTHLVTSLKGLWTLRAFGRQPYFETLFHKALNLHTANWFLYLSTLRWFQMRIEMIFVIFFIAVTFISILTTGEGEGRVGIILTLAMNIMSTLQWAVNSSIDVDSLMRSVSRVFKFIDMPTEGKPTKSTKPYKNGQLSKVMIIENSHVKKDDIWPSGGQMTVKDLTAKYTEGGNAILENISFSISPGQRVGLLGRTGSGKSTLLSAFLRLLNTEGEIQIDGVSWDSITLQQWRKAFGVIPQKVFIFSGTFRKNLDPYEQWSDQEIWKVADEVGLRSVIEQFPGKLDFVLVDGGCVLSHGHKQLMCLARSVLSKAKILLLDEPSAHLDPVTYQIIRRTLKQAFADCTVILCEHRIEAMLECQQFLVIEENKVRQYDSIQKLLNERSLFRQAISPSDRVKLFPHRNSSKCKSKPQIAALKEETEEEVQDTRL

Row | Compound | EC50 [1] | Emax [2] | EC50 [5] | Emax [6] | further results
1 | CCOc1cccc2c1C(=O)N[C@H](C(=O)NCCc1ccc3c(c1)OCCO3)CC(=O)N(C)[C@@H](CC(C)C)C(=O)C1CCC[C@@H](N1)C(=O)N[C@H](Cc1ccccc1)CO2 [Example 283, (7S,11S,20R,22aR)-20-benzyl-N-(2-(2,3-dihydrobenzo[b][1,4]dioxin-6-yl)ethyl)-14-ethoxy-7-isobutyl-8-methyl-6,9,13,22-tetraoxo-1,3,4,6,7,8,9,10,11,12,13,19,20,21,22,22a-hexadecahydro-2H-benzo[p]pyrido[2,1-f][1]oxa[4,7,10,14]tetraazacycloheptadecine-11-carboxamide] | 272 nM | 231% |  |  | 
2 | COc1cc(CCNC(=O)[C@@H]2CC(=O)N(C)[C@@H](CC(C)C)C(=O)N(C)[C@H](CCOc3cnc(C)cn3)C(=O)N[C@H](Cc3ccccc3)COc3cc(C)nc(OC)c3C(=O)N2)on1 [Example 977, (3R,6R,9S,13S)-3-benzyl-9-isobutyl-16-methoxy-N-(2-(3-methoxyisoxazol-5-yl)ethyl)-7,10,18-trimethyl-6-(2-((5-methylpyrazin-2-yl)oxy)ethyl)-5,8,11,15-tetraoxo-2,3,4,5,6,7,8,9,10,11,12,13,14,15-tetradecahydropyrido[3,4-p][1]oxa[4,7,10,14]tetraazacycloheptadecine-13-carboxamide] |  |  |  |  | EC50 [3]: 281 nM; Emax [4]: 410%
3 | Cc1cc(CCNC(=O)[C@@H]2CC(=O)N(C)[C@@H](CC(C)C)C(=O)N3CCN(S(=O)(=O)c4ccc5c(c4)OCCN5C)C[C@@H]3C(=O)N[C@H](Cc3ccccc3)COc3cnc4ccccc4c3C(=O)N2)on1 [Example 748, (9S,13S,19aR,22R)-22-benzyl-13-isobutyl-12-methyl-18-((4-methyl-3,4-dihydro-2H-benzo[b][1,4]oxazin-7-yl)sulfonyl)-N-(2-(3-methylisoxazol-5-yl)ethyl)-7,11,14,20-tetraoxo-7,8,9,10,11,12,13,14,17,18,19,19a,20,21,22,23-hexadecahydro-16H-pyrazino[2′,11:6,7][1]oxa[4,7,10,14]tetraazacycloheptadecino[17,16-c]quinoline-9-carboxamide] |  |  | 529 nM | 295% | 
4 | COc1cc(CCNC(=O)[C@@H]2CC(=O)N(C)[C@@H](CC(C)C)C(=O)N3CCCC[C@@H]3C(=O)N[C@H](Cc3ccccc3)COc3cc(C)c4ncccc4c3C(=O)N2)on1 [Example 822, (9S,13S,19aR,22R)-22-benzyl-13-isobutyl-N-(2-(3-methoxyisoxazol-5-yl)ethyl)-2,12-dimethyl-7,11,14,20-tetraoxo-7,8,9,10,11,12,13,14,17,18,19,19a,20,21,22,23-hexadecahydro-16H-pyrido[2′,1′:6,7][1]oxa[4,7,10,14]tetraazacycloheptadecino[16,17-f]quinoline-9-carboxamide] |  |  |  |  | EC50 [3]: 131 nM; Emax [4]: 363%
5 | COc1cccc(CCNC(=O)[C@@H]2CC(=O)N(C)[C@@H](CC(C)C)C(=O)N3CCCC[C@@H]3C(=O)N[C@H](Cc3ccccc3)COc3ccc4ncoc4c3C(=O)N2)c1 [Example 343, (8S,12S,18aR,21R)-21-benzyl-12-isobutyl-N-(3-methoxyphenethyl)-11-methyl-6,10,13,19-tetraoxo-6,7,8,9,10,11,12,13,16,17,18,18a,19,20,21,22-hexadecahydro-15H-oxazolo[4′,5′:5,6]benzo[1,2-p]pyrido[2,1-f][1]oxa[4,7,10,14]tetraazacycloheptadecine-8-carboxamide] | 332 nM | 270% |  |  | 
6 | COc1cc(CCNC(=O)[C@@H]2CC(=O)N(C)[C@@H](CC(C)C)C(=O)N(C)[C@H](Cc3nc(C(F)(F)F)no3)C(=O)N[C@H](Cc3ccccc3)COc3cc(C)c4ncccc4c3C(=O)N2)on1 [Example 909, (3S,7S,10R,13R)-13-benzyl-7-isobutyl-N-(2-(3-methoxyisoxazol-5-yl)ethyl)-6,9,17-trimethyl-1,5,8,11-tetraoxo-10-((3-(trifluoromethyl)-1,2,4-oxadiazol-5-yl)methyl)-1,2,3,4,5,6,7,8,9,10,11,12,13,14-tetradecahydro-[1]oxa[4,7,10,14]tetraazacycloheptadecino[16,17-f]quinoline-3-carboxamide] |  |  |  |  | EC50 [3]: 17 nM; Emax [4]: 430%
7 | Cc1cc(CCNC(=O)[C@@H]2CC(=O)N(C)[C@@H](CC(C)C)C(=O)N3CCCC[C@@H]3C(=O)N[C@H](Cc3ccccc3)COc3cnc4c(F)cccc4c3C(=O)N2)on1 [Example 443, (9S,13S,19aR,22R)-22-benzyl-3-fluoro-13-isobutyl-12-methyl-N-(2-(3-methylisoxazol-5-yl)ethyl)-7,11,14,20-tetraoxo-7,8,9,10,11,12,13,14,17,18,19,19a,20,21,22,23-hexadecahydro-16H-pyrido[2′,1′:6,7][1]oxa[4,7,10,14]tetraazacycloheptadecino[17,16-c]quinoline-9-carboxamide] |  |  | 316 nM | 275% | 
8 | COc1cc(CCNC(=O)[C@@H]2CC(=O)N(C)[C@@H](CC(C)C)C(=O)N(C)[C@H](CCc3nc(C4CCCC4)no3)C(=O)N[C@H](Cc3ccccc3)COc3ccnc(OC)c3C(=O)N2)on1 [Example 884, (3R,6R,9S,13S)-3-benzyl-6-(2-(3-cyclopentyl-1,2,4-oxadiazol-5-yl)ethyl)-9-isobutyl-16-methoxy-N-(2-(3-methoxyisoxazol-5-yl)ethyl)-7,10-dimethyl-5,8,11,15-tetraoxo-2,3,4,5,6,7,8,9,10,11,12,13,14,15-tetradecahydropyrido[3,4-p][1]oxa[4,7,10,14]tetraazacycloheptadecine-13-carboxamide] |  |  |  |  | EC50 [3]: 96 nM; Emax [4]: 385%
9 | Cc1cc(CCNC(=O)[C@@H]2CC(=O)N(C)[C@@H](CC(C)C)C(=O)N(C)[C@@H](COC(C)(C)C)C(=O)N[C@H](Cc3ccccc3)COc3ccc4ccccc4c3C(=O)N2)on1 (racemic) [Example 719, (3S,7S,10RS,13R)-13-benzyl-10-(tert-butoxymethyl)-7-isobutyl-6,9-dimethyl-N-(2-(3-methylisoxazol-5-yl)ethyl)-1,5,8,11-tetraoxo-1,2,3,4,5,6,7,8,9,10,11,12,13,14-tetradecahydronaphtho[1,2-p][1]oxa[4,7,10,14]tetraazacycloheptadecine-3-carboxamide] |  |  | 124 nM | 313% | 
10 | COc1noc(CCNC(=O)[C@@H]2CC(=O)N(C)[C@@H](CC(C)C)C(=O)N3CCCC[C@@H]3C(=O)N[C@H](Cc3ccccc3)COc3ccnc(OC)c3C(=O)N2)c1F [Example 767, (7S,11S,17aR,20R)-20-benzyl-N-(2-(4-fluoro-3-methoxyisoxazol-5-yl)ethyl)-11-isobutyl-4-methoxy-10-methyl-5,9,12,18-tetraoxo-5,6,7,8,9,10,11,12,15,16,17,17a,18,19,20,21-hexadecahydro-14H-dipyrido[2,1-f:3′,4′-p][1]oxa[4,7,10,14]tetraazacycloheptadecine-7-carboxamide] |  |  | 212 nM | 390% | 
11 | CC(C)C[C@H]1C(=O)N2CCCC[C@@H]2C(=O)N[C@H](Cc2ccccc2)COc2cnc3ccccc3c2C(=O)N[C@H](C(=O)NCCc2c(F)cc(F)cc2F)CC(=O)N1C [Example 73, (9S,13S,19aR,22R)-22-benzyl-13-isobutyl-12-methyl-7,11,14,20-tetraoxo-N-(2,4,6-trifluorophenethyl)-7,8,9,10,11,12,13,14,17,18,19,19a,20,21,22,23-hexadecahydro-16H-pyrido[2′,1′:6,7][1]oxa[4,7,10,14]tetraazacycloheptadecino[17,16-c]quinoline-9-carboxamide] | 214 nM | 253% |  |  | 
12 | COc1cccc(CCNC(=O)[C@@H]2CC(=O)N(C)[C@@H](CC(C)C)C(=O)N(C)CC(=O)N[C@H](Cc3ccccc3)COc3ncc4ccccc4c3C(=O)N2)c1 [Example 530] |  |  | 334 nM | 353% | 
13 | Cc1cc(CCNC(=O)[C@@H]2CC(=O)N(C)[C@@H](CC(C)C)C(=O)N3CCCC[C@@H]3C(=O)N[C@H](Cc3ccccc3)COc3cnc4ccccc4c3C(=O)N2)no1 [Example 98, (9S,13S,19aR,22R)-22-benzyl-13-isobutyl-12-methyl-N-(2-(5-methylisoxazol-3-yl)ethyl)-7,11,14,20-] | 311 nM | 326% |  |  | 
14 | CC(C)C[C@H]1C(=O)N(C)C2(CC2)C(=O)N[C@H](Cc2ccccc2)COc2cnc3ccccc3c2C(=O)N[C@H](C(=O)NCCc2c(F)cccc2F)CC(=O)N1C [Example 110, (3′S,7′S,13′R)-13′-benzyl-N-(2,6-difluorophenethyl)-7′-isobutyl-6′,9′-dimethyl-1′,5′,8′,11′-tetraoxo-2′,3′,4′,5′,6′,7′,8′,9′,11′,12′,13′,14′-dodecahydro-1′H-spiro[cyclopropane-1,10′-[1]oxa[4,7,10,14]tetraazacycloheptadecino[17,16-c]quinoline]-3′-carboxamide] | 478 nM | 261% |  |  | 
15 | Cc1onc(CCNC(=O)[C@@H]2CC(=O)N(C)[C@@H](CC(C)C)C(=O)N3CCOC[C@@H]3C(=O)N[C@H](Cc3ccccc3)COc3ccc4ccccc4c3C(=O)N2)c1C [Example 70, (4aR,7R,18S,22S)-7-benzyl-N-(2-(4,5-dimethylisoxazol-3-yl)ethyl)-22-isobutyl-21-methyl-5,16,20,23-tetraoxo-1,2,4,4a,5,6,7,8,16,17,18,19,20,21,22,23-hexadecahydronaphtho[1,2-p][1,4]oxazino[3,4-f][1]oxa[4,7,10,14]tetraazacycloheptadecine-18-carboxamide] | 754 nM | 202% |  |  | 
16 | C#CC[C@H]1C(=O)N(CCC2CCCCC2)CC(=O)N[C@H](Cc2ccccc2)COc2ccc3ccccc3c2C(=O)N[C@H](C(=O)NCCc2ccc3c(c2)OCO3)CC(=O)N1C [Example 339, (3S,7S,13R)-N-(2-(benzo[d][1,3]dioxol-5-yl)ethyl)-13-benzyl-9-(2-cyclohexylethyl)-6-methyl-1,5,8,11-tetraoxo-7-(prop-2-yn-1-yl)-1,2,3,4,5,6,7,8,9,10,11,12,13,14-tetradecahydronaphtho[1,2-p][1]oxa[4,7,10,14]tetraazacycloheptadecine-3-carboxamide] | 195 nM | 237% |  |  | 
